Several values for one entry are separate records, joined by “and”; a condition that tells them apart may be missing. Identical values can stand only once. Toxic doses and inconclusive results are not listed.
Tested on: P388 leukemia ip, CD2F1 mice, survival T/C
Test: NCI In Vivo Anticancer Drug Screen. Data for tumor model P388 Leukemia (intraperitoneal) in CD2F1 (CDF1) mice
Conditions: endpoint: median survival time, higher = longer survival
Procedure, shortened: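 Mice carrying the transplanted tumor received test compound or vehicle. Survival was recorded in each group, and the value is the treated-group measurement divided by that of the vehicle-treated control group.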

[1] = dose: 50.0 mg/kg/injection, schedule: Q01DX005 (ip), vehicle: Klucel (hydroxypropylcellulose) (HPC)
[2] = dose: 100.0 mg/kg/injection, schedule: Q01DX005 (ip), vehicle: Klucel (hydroxypropylcellulose) (HPC)
[3] = dose: 200.0 mg/kg/injection, schedule: Q01DX005 (ip), vehicle: Klucel (hydroxypropylcellulose) (HPC)

CCOC(=O)c1ncc(OCC)o1
T/C (dose: 50.0 mg/kg/injection, schedule: Q01DX009 (ip), vehicle: saline): 91 % of control
T/C (dose: 100.0 mg/kg/injection, schedule: Q01DX009 (ip), vehicle: saline): 89 % of control
T/C (dose: 200.0 mg/kg/injection, schedule: Q01DX009 (ip), vehicle: saline): 95 % of control

Nc1nc(Br)nc2c1ncn2C1CC(O)C(CO)O1 (centres undefined)
T/C (dose: 1.5 mg/kg/injection, schedule: Q01DX005 (ip), vehicle: suspension in saline): 118 % of control
T/C (dose: 3.0 mg/kg/injection, schedule: Q01DX005 (ip), vehicle: suspension in saline): 121 % of control
T/C (dose: 15.0 mg/kg/injection, schedule: Q01DX005 (ip), vehicle: suspension in saline): 108 % of control
T/C (dose: 15.0 mg/kg/injection, schedule: Q03HX009 (ip), vehicle: saline): 153 % of control and 155 % of control
T/C (dose: 30.0 mg/kg/injection, schedule: Q03HX009 (ip), vehicle: saline with Tween-80): 164 % of control
T/C (dose: 30.0 mg/kg/injection, schedule: Q03HX009 (ip), vehicle: saline): 167 % of control and 181 % of control
T/C (dose: 60.0 mg/kg/injection, schedule: Q01DX005 (ip), vehicle: suspension in saline): 117 % of control
T/C (dose: 60.0 mg/kg/injection, schedule: Q03HX009 (ip), vehicle: saline with Tween-80): 155 % of control
T/C (dose: 60.0 mg/kg/injection, schedule: Q03HX009 (ip), vehicle: saline): 165 % of control and 172 % of control
T/C (dose: 120.0 mg/kg/injection, schedule: Q01DX005 (ip), vehicle: suspension in saline): 122 % of control
T/C (dose: 120.0 mg/kg/injection, schedule: Q03HX009 (ip), vehicle: saline with Tween-80): 157 % of control
T/C (dose: 120.0 mg/kg/injection, schedule: Q03HX009 (ip), vehicle: saline): 172 % of control

CC(C)(C)c1cc2c(c(C(C)(C)OC(=O)c3ccccc3)c1)SOC2(C)C
T/C (dose: 12.5 mg/kg/injection, schedule: Q01DX005 (ip), vehicle: saline): 101 % of control
T/C (dose: 12.5 mg/kg/injection, schedule: Q01DX005 (ip), vehicle: suspension in saline): 102 % of control
T/C (dose: 25.0 mg/kg/injection, schedule: Q01DX005 (ip), vehicle: saline): 91 % of control
T/C (dose: 25.0 mg/kg/injection, schedule: Q01DX005 (ip), vehicle: suspension in saline): 100 % of control
T/C [1]: 100 % of control
T/C (dose: 50.0 mg/kg/injection, schedule: Q01DX005 (ip), vehicle: saline): 100 % of control
T/C (dose: 50.0 mg/kg/injection, schedule: Q01DX005 (ip), vehicle: suspension in saline): 106 % of control
T/C [2]: 104 % of control
T/C (dose: 100.0 mg/kg/injection, schedule: Q01DX005 (ip), vehicle: saline): 98 % of control
T/C (dose: 100.0 mg/kg/injection, schedule: Q01DX005 (ip), vehicle: suspension in saline): 102 % of control

COC(=O)c1nc(N)nc(C(=O)OC)c1C(=O)c1cccc2ccccc12
T/C (dose: 60.0 mg/kg/injection, schedule: Q01DX005 (ip), vehicle: Klucel (hydroxypropylcellulose) (HPC)): 99 % of control
T/C (dose: 120.0 mg/kg/injection, schedule: Q01DX005 (ip), vehicle: Klucel (hydroxypropylcellulose) (HPC)): 100 % of control

COc1ccc(C/C(N)=N\O)cc1
T/C (dose: 50.0 mg/kg/injection, schedule: Q01DX009 (ip), vehicle: Klucel (hydroxypropylcellulose) (HPC)): 108 % of control
T/C (dose: 100.0 mg/kg/injection, schedule: Q01DX009 (ip), vehicle: Klucel (hydroxypropylcellulose) (HPC)): 106 % of control
T/C (dose: 200.0 mg/kg/injection, schedule: Q01DX009 (ip), vehicle: Klucel (hydroxypropylcellulose) (HPC)): 117 % of control

C=CCOc1cc2c(cc1C(C)c1ccc(OCCC)cc1)OCO2 (centres undefined)
T/C (dose: 50.0 mg/kg/injection, schedule: Q01DX005 (ip), vehicle: saline with Tween-80): 97 % of control
T/C (dose: 100.0 mg/kg/injection, schedule: Q01DX005 (ip), vehicle: saline with Tween-80): 102 % of control
T/C (dose: 200.0 mg/kg/injection, schedule: Q01DX005 (ip), vehicle: saline with Tween-80): 107 % of control

C=CCOc1ccc(-c2ccccc2)cc1Br
T/C [1]: 108 % of control
T/C [2]: 102 % of control
T/C [3]: 100 % of control

CN(C)CCC(=O)/C=C/c1ccc(Cl)c(Cl)c1
T/C (dose: 6.25 mg/kg/injection, schedule: Q01DX009 (ip), vehicle: saline with Tween-80): 92 % of control
T/C (dose: 12.5 mg/kg/injection, schedule: Q01DX009 (ip), vehicle: saline with Tween-80): 101 % of control
T/C (dose: 25.0 mg/kg/injection, schedule: Q01DX009 (ip), vehicle: saline with Tween-80): 113 % of control
T/C (dose: 50.0 mg/kg/injection, schedule: Q01DX009 (ip), vehicle: saline with Tween-80): 116 % of control

Cc1nc2ccccc2c(N)c1-c1cc(C)c2c(C)nc3ccccc3c2n1
T/C (dose: 25.0 mg/kg/injection, schedule: Q01DX005 (ip), vehicle: Klucel (hydroxypropylcellulose) (HPC)): 88 % of control
T/C [1]: 87 % of control
T/C [2]: 90 % of control
T/C [3]: 88 % of control

From PubChem BioAssay AID330 (DTP/NCI, 2004)
